Test results published in PMC6949113, “Preclinical evaluation of AT-527, a novel guanosine nucleotide prodrug with potent, pan-genotypic activity against hepatitis C virus” (PLoS ONE, 2020).
Values joined by “and” are separate entries in the source; they are usually repeats but may differ in a detail not shown here. Equal values may be shown once. Read-outs that look alike come from different tables or passages of the source.

How the values were obtained:
human DNA polymerase γ = target: T1, human DNA polymerase γ (Homo sapiens, UniProt P54098); assay: Human DNA polymerase inhibition assay, γ; type: biochemical
T1 construct: purchased CHIMERx (Madison, WI)
Description: (§1) The polymerases were purchased from CHIMERx (Madison, WI). Inhibition of DNA polymerase α activity was assayed in microtiter plates in 20 mM Tris-HCl, pH 8, 5 mM Mg acetate, 0.3 mg/mL BSA, 1mM DTT, 0.1 mM spermine, 0.05 mM dCTP, dTTP and dATP, 10 μCi ^32P-α-dGTP (800 Ci/mmol), 20 μg activated calf thymus DNA and the test compound at indicated concentrations. The DNA polymerase β and γ reaction mixture contained 50 mM Tris-HCl, pH 8.7, KCl (10 mM for β and 100 mM for γ), 10 mM MgCl2, 0.4 mg/mL BSA, 1mM DTT, 15% glycerol, 0.05 mM dCTP, dTTP and dATP, 10 μCi ^32P-α-dGTP (800 Ci/mmol), 20 μg activated calf thymus DNA and test compound at the indicated concentrations. For each assay, samples were run in triplicate, and positive controls were included. The enzyme reactions were allowed to proceed for 30 min at 37 °C followed by transfer onto glass-fiber filter plates and subsequent precipitation with 10% trichloroacetic acid (TCA). Plates were washed five times with 5% TCA, once with 95% ethanol and dried. The radioactive content of each filter was measured and used to determine the extent of inhibition of each polymerase.

K562 cells [1] = assay: K562 cytotoxicity (XTT, 3 days); type: cell-based, human
Description: (§2) Mitochondrial toxicity assay. K562 leukemia cells (ATCC, CCL-243) seeded in 96-well plates (1x10^5 cells/well) were incubated in triplicate with test or positive control compounds in RPMI containing glucose, 10% FBS and 2 mM L-glutamine. […] Viability was compared with untreated cells to determine TC50 values. Separately, K562 cells were incubated in triplicate with test compounds in glucose-free RPMI supplemented with 10 mM galactose. Test compounds diluted in RPMI containing glucose were evaluated in parallel.

[2] = system: COX-1 protein in PC3 cells; assay: Mitobiogenesis toxicity assay, COX-1; type: cell-based, human; conditions: 5 days, read-out: Mitogenesis IC50 COX-1
Description: (§3) Mitobiogenesis toxicity assay. […] One plate was used to measure cell viability by XTT staining. Cells in the remaining two plates were fixed with 4% paraformaldehyde for 20 min, washed thrice with DPBS, and 0.5% acetic acid added for 5 min to block endogenous alkaline phosphatase activity. Nuclear DNA encoded Complex II SDH-A mitochondrial protein and mitochondrial encoded Complex IV COX-1 protein were measured spectrophotometrically using the Abcam Mitobiogenesis ELISA kit (Cambridge, UK) per the manufacturer’s instructions.

PC3 cells = assay: PC3 cytotoxicity (XTT, 5 days); type: cell-based, human
Description: as §3

K562 cells [3] = assay: Mitochondrial toxicity assay (Mitochondrial ToxGlo, glucose/galactose); type: cell-based, human
Description: as §2

[4] = system: SDH-A protein in PC3 cells; assay: Mitobiogenesis toxicity assay, SDH-A; type: cell-based, human; conditions: 5 days, read-out: Mitogenesis IC50 SDH-A
Description: as §3

[5] = target: human mitochondrial RNA polymerase (POLRMT) (Homo sapiens, UniProt O00411); conditions: nucleotide controls; cited from earlier work
HCV GT1b replicon = HCV GT1b replicon assay (Britelite luciferase reporter)
[6] = system: HCV strains containing resistance-associated variants (RAVs); assay: PhenoSense HCV NS5B assay, resistance-associated variants; type: cell-based, hepatitis C virus; conditions: for EC50: Hepatitis C virus
[7] = system: HCV NS5B replicons, laboratory strains; assay: PhenoSense HCV NS5B assay, laboratory strains; type: cell-based, hepatitis C virus
[8] = system: HCV NS5B replicons from clinical isolates; assay: PhenoSense HCV NS5B assay, clinical isolates; type: cell-based, hepatitis C virus; conditions: for EC50: Hepatitis C virus
Huh-luc/neo-ET cells = conditions: XTT
RSV = assay: Anti-RSV assay (XTT); conditions: RSV in HEp2 cells
human iPS cardiomyocytes = type: cell-based; conditions: 3 days
Description: Cardiomyocyte assay. […] Test or positive control compounds were then added in triplicate and the incubations continued for 3 days. Cell viability was measured by XTT and CellTiter Glo staining. For the latter method, the medium was removed from test plates, replaced with CellTiter Glo reagent in fresh medium before incubating at RT for 10 min. The well contents were transferred to a white 96-well plate and luminescence measured within 15 min on a Wallac 1450 Microbeta Trilux liquid scintillation counter.

human DNA polymerase β = target: T2, human DNA polymerase β (Homo sapiens, UniProt P06746); assay: Human DNA polymerase inhibition assay, β; type: biochemical
T2 construct: purchased CHIMERx (Madison, WI)
Description: as §1

[9] = individual assays, AT-511 batches 1-6, SOF in parallel

Sequence of human mitochondrial RNA polymerase (POLRMT) (O00411 42-1230): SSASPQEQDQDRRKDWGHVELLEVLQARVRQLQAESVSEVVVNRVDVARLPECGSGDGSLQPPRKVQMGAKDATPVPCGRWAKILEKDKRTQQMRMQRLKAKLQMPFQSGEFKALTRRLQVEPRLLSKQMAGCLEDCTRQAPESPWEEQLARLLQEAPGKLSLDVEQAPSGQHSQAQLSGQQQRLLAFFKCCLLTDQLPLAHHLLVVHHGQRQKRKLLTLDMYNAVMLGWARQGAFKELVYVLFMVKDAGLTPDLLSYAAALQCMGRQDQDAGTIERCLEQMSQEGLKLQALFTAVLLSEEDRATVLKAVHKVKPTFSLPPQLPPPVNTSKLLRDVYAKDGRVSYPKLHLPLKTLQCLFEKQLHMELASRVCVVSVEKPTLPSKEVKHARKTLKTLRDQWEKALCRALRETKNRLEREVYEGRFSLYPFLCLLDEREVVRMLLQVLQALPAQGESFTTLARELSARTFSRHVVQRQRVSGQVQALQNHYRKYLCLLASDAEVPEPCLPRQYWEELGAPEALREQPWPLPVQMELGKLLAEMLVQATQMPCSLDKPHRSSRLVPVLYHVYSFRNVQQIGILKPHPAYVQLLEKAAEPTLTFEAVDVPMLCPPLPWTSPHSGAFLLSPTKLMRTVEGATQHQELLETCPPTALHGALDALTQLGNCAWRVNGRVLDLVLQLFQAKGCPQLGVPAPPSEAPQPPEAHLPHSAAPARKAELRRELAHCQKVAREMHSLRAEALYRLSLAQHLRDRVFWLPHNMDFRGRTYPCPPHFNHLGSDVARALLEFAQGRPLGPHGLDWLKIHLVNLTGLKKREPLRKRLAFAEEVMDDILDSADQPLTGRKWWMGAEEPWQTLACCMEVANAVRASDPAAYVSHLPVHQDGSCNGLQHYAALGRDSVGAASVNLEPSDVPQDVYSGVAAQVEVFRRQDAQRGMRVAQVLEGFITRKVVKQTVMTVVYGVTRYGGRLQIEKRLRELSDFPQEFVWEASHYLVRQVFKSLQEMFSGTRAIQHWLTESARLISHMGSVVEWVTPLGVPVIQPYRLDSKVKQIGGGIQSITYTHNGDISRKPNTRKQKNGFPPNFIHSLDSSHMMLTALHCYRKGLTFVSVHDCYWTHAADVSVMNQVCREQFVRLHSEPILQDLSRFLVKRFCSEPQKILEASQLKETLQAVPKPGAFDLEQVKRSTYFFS
T1 sequence (P54098 whole entry): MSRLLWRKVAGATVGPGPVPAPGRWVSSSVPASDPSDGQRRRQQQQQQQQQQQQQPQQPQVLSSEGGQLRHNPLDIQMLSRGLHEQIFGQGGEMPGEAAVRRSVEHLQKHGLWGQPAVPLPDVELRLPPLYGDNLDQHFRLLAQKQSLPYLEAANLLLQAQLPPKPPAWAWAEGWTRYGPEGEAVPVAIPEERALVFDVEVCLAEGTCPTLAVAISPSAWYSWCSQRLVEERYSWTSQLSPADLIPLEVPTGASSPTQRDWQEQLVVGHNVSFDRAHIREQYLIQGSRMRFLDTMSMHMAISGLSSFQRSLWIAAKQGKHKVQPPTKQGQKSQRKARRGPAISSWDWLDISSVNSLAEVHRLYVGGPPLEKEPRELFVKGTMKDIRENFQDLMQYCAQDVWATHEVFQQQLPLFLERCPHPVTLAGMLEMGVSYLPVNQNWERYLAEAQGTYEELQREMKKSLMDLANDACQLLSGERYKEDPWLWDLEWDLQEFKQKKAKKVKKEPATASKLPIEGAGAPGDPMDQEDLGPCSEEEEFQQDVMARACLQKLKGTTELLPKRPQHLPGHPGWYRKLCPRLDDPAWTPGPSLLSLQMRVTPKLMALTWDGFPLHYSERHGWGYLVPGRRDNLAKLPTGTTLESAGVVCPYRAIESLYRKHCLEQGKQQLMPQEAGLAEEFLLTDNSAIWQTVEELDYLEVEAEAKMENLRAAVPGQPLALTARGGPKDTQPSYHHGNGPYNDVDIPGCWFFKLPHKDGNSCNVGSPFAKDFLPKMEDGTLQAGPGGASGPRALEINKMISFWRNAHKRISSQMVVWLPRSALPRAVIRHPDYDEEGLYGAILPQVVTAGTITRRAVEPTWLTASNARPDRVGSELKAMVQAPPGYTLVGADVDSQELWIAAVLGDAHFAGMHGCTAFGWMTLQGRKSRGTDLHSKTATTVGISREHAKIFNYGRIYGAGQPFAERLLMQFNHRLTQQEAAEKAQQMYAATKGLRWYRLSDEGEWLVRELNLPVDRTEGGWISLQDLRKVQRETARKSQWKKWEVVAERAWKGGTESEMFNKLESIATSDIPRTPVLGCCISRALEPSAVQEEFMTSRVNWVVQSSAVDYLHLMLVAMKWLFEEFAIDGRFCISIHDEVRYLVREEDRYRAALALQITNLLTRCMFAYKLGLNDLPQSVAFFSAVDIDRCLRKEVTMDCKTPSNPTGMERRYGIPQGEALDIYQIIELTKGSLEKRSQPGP

Nc1nc2c(ncn2[C@@H]2O[C@H](COP(=O)(O)OP(=O)(O)OP(=O)(O)O)[C@@H](O)[C@H]2F)c(=O)[nH]1 [2’-fluoro-2’-dGTP, reference compound]
IC50 (human DNA polymerase γ): 10400 nM

C[C@@H]1CC[C@@]2(OC1)O[C@H]1[C@@H](O)[C@H]3[C@@H]4CC[C@H]5C[C@@H](O[C@@H]6O[C@H](CO)[C@H](O[C@@H]7O[C@H](CO)[C@@H](O)[C@H](O[C@@H]8OC[C@@H](O)[C@H](O)[C@H]8O)[C@H]7O[C@@H]7O[C@H](CO)[C@H](O)[C@H](O[C@@H]8O[C@H](CO)[C@@H](O)[C@H](O)[C@H]8O)[C@H]7O)[C@H](O)[C@H]6O)[C@H](O)C[C@]5(C)[C@H]4CC[C@]3(C)[C@H]1[C@@H]2C [Digitonin]
Cytotoxicity TC50 (K562 cells [1]; K562 cells, glucose medium, 3 days, XTT): 8100 nM | IC50 ([2]; Homo sapiens, PC-3, 120 h): 32600 nM | Cytotoxicity TC50 (PC3 cells; PC3 cells, 5 days, XTT): 27200 nM | IC50 (K562 cells [3]; Homo sapiens, K562, 2 h, read-out: MF (Gal) IC50, mitochondrial function): 27900 nM | IC50 (K562 cells [3]; Homo sapiens, K562, glucose-free galactose medium, 2 h, measure of necrosis, read-out: MI (Gal) IC50, cell membrane integrity): 31900 nM | IC50 ([4]; Homo sapiens, PC-3, 120 h): 40700 nM

Nc1nc2c(ncn2[C@@H]2O[C@H](COP(=O)(O)OP(=O)(O)OP(=O)(O)O)[C@@H](O)[C@H]2O)c(=O)[nH]1 [GTP]
kpol [5]: 21 ± 1 s⁻¹

CC(C)OC(=O)[C@H](C)N[P@](=O)(OC[C@H]1O[C@@H](n2ccc(=O)[nH]c2=O)[C@](C)(F)[C@@H]1O)Oc1ccccc1 [SOF, sofosbuvir]
EC50 (HCV GT1b replicon; Hepatitis C virus, GT1B, read-out: EC50 range, range over all assays): 33 to 68 nM | EC50 (HCV GT1b replicon; Hepatitis C virus, GT1B, read-out: mean EC50, mean (± SD) of all assays): 48 ± 10 nM | EC50 (HCV GT1b replicon; [9]): 52.3 nM and 46.5 nM and 67.5 nM and 32.7 nM and 48.3 nM and 40.4 nM and 47.6 nM and 48.1 nM | EC95 (HCV GT1b replicon; [9]): 360 nM and 231 nM and 387 nM and 197 nM and 247 nM and 198 nM and 275 nM and 263 nM | mean EC95 (HCV GT1b replicon; mean (± SD) of all assays): 270 ± 70 nM and 270 nM | EC50 (HCV GT1b replicon; read-out: EC50 range, range over all assays): 32.7 to 67.5 nM | EC50 (HCV GT1b replicon; read-out: mean EC50, mean (± SD) of all assays): 47.9 nM | EC95 ([6]; GT1a 2_C316N): 473 nM | EC95 ([6]; GT1a 2c1_L159F): 1068 nM | EC95 ([6]; GT1a 2c2_L159F_S282T): 16950 nM | EC95 ([6]; GT1a H77_C316N): 469 nM | EC95 ([6]; GT1a H77_S282T): 7230 nM | EC95 ([6]; GT1b Con-1_L159F): 715 nM | EC95 ([6]; GT1b Con-1_S282T): 7230 nM | EC95 ([6]; GT2b 2_L159F): 539 nM | EC50 ([6]; GT1A, GT1a 2_C316N): 73.9 nM | EC50 ([6]; GT1A, GT1a 2c1_L159F): 115 nM | EC50 ([6]; GT1A, GT1a 2c2_L159F_S282T): 1620 nM | EC50 ([6]; GT1A, GT1a H77_C316N): 57.2 nM | EC50 ([6]; GT1A, GT1a H77_S282T): 1400 nM | EC50 ([6]; GT1B, GT1b Con-1_L159F): 111 nM | EC50 ([6]; GT1B, GT1b Con-1_S282T): 950 nM | EC50 ([6]; GT2B, GT2b 2_L159F): 79.2 nM | shift in EC50 versus reference strain lacking S282T ([6]; strains with S282T): 15 fold | shift in EC95 versus reference strain lacking S282T ([6]; strains with S282T): 19 fold | EC95 ([7]; GT1a H77): 719 nM | EC95 ([7]; GT1b Con-1): 545 nM | EC50 ([7]; GT1b Con-1 (control reference)): 89.4 nM | EC95 ([7]; GT3a S52): 700 nM | EC50 ([7]; Hepatitis C virus, GT1A, GT1a H77): 83.4 nM | EC50 ([7]; Hepatitis C virus, GT1B, GT1b Con-1 (control reference)): 89 nM | EC50 ([7]; Hepatitis C virus, GT2A, GT2a JFH-1): 50.7 nM | EC50 ([7]; Hepatitis C virus, GT3A, GT3a S52): 117 nM | EC50 ([7]; Hepatitis C virus, GT4A, GT4a ED43): 158 nM | EC50 ([7]; Hepatitis C virus, GT5A, GT5a SA13): 287 nM | EC50 ([7]; Hepatitis C virus, read-out: range in EC50 values across genotypes, panel of six laboratory strains): 51 to 287 nM | fold range in EC50 values across genotypes ([7]; laboratory strains): 5.6 fold | EC50 ([8]; GT1A, clinical isolate GT1a): 62.7 nM | EC50 ([8]; GT1B, clinical isolate GT1b): 86 nM | EC50 ([8]; GT2A, clinical isolate GT2a): 22.5 nM | EC50 ([8]; GT2B, clinical isolate GT2b): 44.8 nM | EC50 ([8]; GT3A, clinical isolate GT3a-1): 126 nM | EC50 ([8]; GT3A, clinical isolate GT3a-2): 123 nM | EC50 ([8]; GT4A, clinical isolate GT4a): 74.9 nM | EC50 ([8]; clinical isolate GT4d): 93.7 nM | EC50 ([8]; read-out: range in EC50 values, eight clinical-isolate replicons): 23 to 126 nM | EC95 ([8]; clinical isolate GT1a): 508 nM | EC95 ([8]; clinical isolate GT1b): 642 nM | EC95 ([8]; clinical isolate GT2a): 195 nM | EC95 ([8]; clinical isolate GT2b): 295 nM | EC95 ([8]; clinical isolate GT3a-1): 690 nM | EC95 ([8]; clinical isolate GT3a-2): 808 nM | EC95 ([8]; clinical isolate GT4a): 681 nM | EC95 ([8]; clinical isolate GT4d): 1020 nM | fold range in EC50 values ([8]; clinical isolates): 5.5 fold | fold range in EC95 values ([8]; clinical isolates): 5.2 fold | toxicity to the replicon cells, none up to highest concentration tested (Huh-luc/neo-ET cells): > 1 µM | TC50 (Huh-luc/neo-ET cells; individual assays): >1000 nM

Cc1ccc(CCCO)c(NCc2ccc3nc(NCCCN4CCOCC4)n(Cc4nc(C)ccc4O)c3c2)c1 [TMC-353121]
EC50 (RSV): 3 nM | TC50 (HEp2 cells): >100 nM

O=c1ccn([C@@H]2O[C@H](COP(=O)(O)OP(=O)(O)OP(=O)(O)O)[C@@H](O)[C@H]2O)c(=O)[nH]1 [UTP]
kpol [5]: 17 ± 1 s⁻¹

Nc1ccn([C@H]2CC[C@@H](CO)O2)c(=O)n1 [ddC]
Cytotoxicity TC50 (K562 cells [1]): >20000 nM | IC50 [2]: 1100 nM | Cytotoxicity TC50 (PC3 cells): >20000 nM | IC50 (K562 cells [3]; K562, glucose-free galactose medium, 2 h, inhibition of cellular ATP levels, read-out: MF (Gal) IC50, mitochondrial function): > 20000 nM | IC50 (K562 cells [3]; K562, glucose-free galactose medium, 2 h, measure of necrosis, read-out: MI (Gal) IC50, cell membrane integrity): > 20000 nM | IC50 [4]: > 20000 nM

COc1cc2nc(N3CCN(C(=O)C4COc5ccccc5O4)CC3)nc(N)c2cc1OC (centres unmarked) [doxazosin]
TC50 (human iPS cardiomyocytes): 18000 nM

C[C@H](CCC(=O)O)[C@H]1CC[C@H]2[C@@H]3CC[C@@H]4C[C@H](O)CC[C@]4(C)[C@H]3CC[C@]12C [lithocholic acid, reference compound]
IC50 (human DNA polymerase β): 2910 nM
